Laboratory results taken from patent US20230085307A1, “PYRIDAZINONE COMPOUND AND HERBICIDE” (NISSAN CHEMICAL CORPORATION, priority 2019, published 2023).

How the values were obtained:
late watergrass = experiment: Test Example 1: herbicidal activity, application before weed generation under submerged conditions (Table 16, symbol A); type: in vivo, late watergrass (Echinochloa oryzicola); conditions: amount of applied herbicide 320 g/ha
How it was run: (§1)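 Alluvial soil was flooded to 4 cm depth, weed seeds were sown mixed and 2.5-leaf rice seedlings were transplanted. On sowing day, the compound's emulsion, diluted in water to a set dose, was applied to the water surface. Plants grew at 25–30 °C and were scored 0–5 after three weeks.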

Japanese bulrush = experiment: Test Example 1: herbicidal activity, application before weed generation under submerged conditions (Table 16, symbol B); type: in vivo, Japanese bulrush (Schoenoplectus juncoides); conditions: amount of applied herbicide 320 g/ha
How it was run: as §1

oval-leafed pondweed = experiment: Test Example 1: herbicidal activity, application before weed generation under submerged conditions (Table 16, symbol C); type: in vivo, oval-leafed pondweed (Monochoria vaginalis); conditions: amount of applied herbicide 320 g/ha
How it was run: as §1

barnyard grass [1] = experiment: Test Example 3: herbicidal effect by foliage application, Wagner pot (Table 18, symbol H); type: in vivo, barnyard grass (Echinochloa crus-galli); conditions: 344 g/ha
How it was run: (§2)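 Plants were sown in alluvial soil held under 0.1–0.5 cm standing water and grown 14 days in a greenhouse at 25–30 °C. An emulsifiable formulation, water-diluted to the set dose, was then sprayed onto the foliage, and effects were scored three weeks later using previously defined criteria.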

Chinese sprangletop = experiment: Test Example 3: herbicidal effect by foliage application, Wagner pot (Table 18, symbol D); type: in vivo, chinese sprangletop (Leptochloa chinensis); conditions: 344 g/ha
How it was run: as §2

rice flat sedge = experiment: Test Example 3: herbicidal effect by foliage application, Wagner pot (Table 18, symbol E); type: in vivo, rice flat sedge (Cyperus iria); conditions: 344 g/ha
How it was run: as §2

southern crabgrass [2] = experiment: Test Example 4: herbicidal effect by soil treatment (Table 19, symbol F); type: in vivo, southern crabgrass (Digitaria ciliaris); conditions: amount of applied herbicide 320 g/ha
How it was run: (§3)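 In this soil treatment, the formulated compound reached the seeds only through the soil: seeds were buried about 1.5 cm deep in sterilized diluvial soil, then the diluted emulsion was sprayed over the surface. After three weeks at 25° C. to 30° C. in a greenhouse, effects were graded on criteria from an earlier test.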

green foxtail [3] = experiment: Test Example 4: herbicidal effect by soil treatment (Table 19, symbol G); type: in vivo, green foxtail (Setaria viridis); conditions: amount of applied herbicide 320 g/ha
How it was run: as §3

barnyard grass [4] = experiment: Test Example 4: herbicidal effect by soil treatment (Table 19, symbol H); type: in vivo, barnyard grass (Echinochloa crus-galli); conditions: amount of applied herbicide 320 g/ha
How it was run: as §3

wild oat [5] = experiment: Test Example 4: herbicidal effect by soil treatment (Table 19, symbol I); type: in vivo, wild oat (Avena fatua); conditions: amount of applied herbicide 320 g/ha
How it was run: as §3

blackgrass [6] = experiment: Test Example 4: herbicidal effect by soil treatment (Table 19, symbol J); type: in vivo, blackgrass (Alopecurus myosuroides); conditions: amount of applied herbicide 320 g/ha
How it was run: as §3

Italian ryegrass [7] = experiment: Test Example 4: herbicidal effect by soil treatment (Table 19, symbol K); type: in vivo, Italian ryegrass (Lolium multiflorum); conditions: amount of applied herbicide 320 g/ha
How it was run: as §3

windgrass [8] = experiment: Test Example 4: herbicidal effect by soil treatment (Table 19, symbol L); type: in vivo, windgrass (Apera spica-venti); conditions: amount of applied herbicide 320 g/ha
How it was run: as §3

velvetleaf [9] = experiment: Test Example 4: herbicidal effect by soil treatment (Table 19, symbol M); type: in vivo, velvetleaf (Abutilon theophrasti); conditions: amount of applied herbicide 320 g/ha
How it was run: as §3

redroot pigweed [10] = experiment: Test Example 4: herbicidal effect by soil treatment (Table 19, symbol N); type: in vivo, redroot pigweed (Amaranthus retroflexus); conditions: amount of applied herbicide 320 g/ha
How it was run: as §3

lambsquarters [11] = experiment: Test Example 4: herbicidal effect by soil treatment (Table 19, symbol O); type: in vivo, lambsquarters (Chenopodium album); conditions: amount of applied herbicide 320 g/ha
How it was run: as §3

chickweed [12] = experiment: Test Example 4: herbicidal effect by soil treatment (Table 19, symbol P); type: in vivo, common chickweed (Stellaria media); conditions: amount of applied herbicide 320 g/ha
How it was run: as §3

persian speedwell [13] = experiment: Test Example 4: herbicidal effect by soil treatment (Table 19, symbol R); type: in vivo, Persian speedwell (Veronica persica); conditions: amount of applied herbicide 320 g/ha
How it was run: as §3

southern crabgrass [14] = experiment: Test Example 5: herbicidal effect by foliage application, plastic box (Table 20, symbol F); type: in vivo, southern crabgrass (Digitaria ciliaris); conditions: amount of applied herbicide 320 g/ha; foliage application after 14-day growth; evaluated three weeks after application
How it was run: (§4)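 Plants were sown into sterilized diluvial soil under about 1.5 cm cover and kept in a greenhouse at 25° C. to 30° C. Fourteen days on, foliage received an even spray of the diluted emulsion. Herbicidal or crop effect was judged three weeks afterwards.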

green foxtail [15] = experiment: Test Example 5: herbicidal effect by foliage application, plastic box (Table 20, symbol G); type: in vivo, green foxtail (Setaria viridis); conditions: amount of applied herbicide 320 g/ha; foliage application after 14-day growth; evaluated three weeks after application
How it was run: as §4

barnyard grass [16] = experiment: Test Example 5: herbicidal effect by foliage application, plastic box (Table 20, symbol H); type: in vivo, barnyard grass (Echinochloa crus-galli); conditions: amount of applied herbicide 320 g/ha; foliage application after 14-day growth; evaluated three weeks after application
How it was run: as §4

wild oat [17] = experiment: Test Example 5: herbicidal effect by foliage application, plastic box (Table 20, symbol I); type: in vivo, wild oat (Avena fatua); conditions: amount of applied herbicide 320 g/ha; foliage application after 14-day growth; evaluated three weeks after application
How it was run: as §4

blackgrass [18] = experiment: Test Example 5: herbicidal effect by foliage application, plastic box (Table 20, symbol J); type: in vivo, blackgrass (Alopecurus myosuroides); conditions: amount of applied herbicide 320 g/ha; foliage application after 14-day growth; evaluated three weeks after application
How it was run: as §4

Italian ryegrass [19] = experiment: Test Example 5: herbicidal effect by foliage application, plastic box (Table 20, symbol K); type: in vivo, Italian ryegrass (Lolium multiflorum); conditions: amount of applied herbicide 320 g/ha; foliage application after 14-day growth; evaluated three weeks after application
How it was run: as §4

windgrass [20] = experiment: Test Example 5: herbicidal effect by foliage application, plastic box (Table 20, symbol L); type: in vivo, windgrass (Apera spica-venti); conditions: amount of applied herbicide 320 g/ha; foliage application after 14-day growth; evaluated three weeks after application
How it was run: as §4

velvetleaf [21] = experiment: Test Example 5: herbicidal effect by foliage application, plastic box (Table 20, symbol M); type: in vivo, velvetleaf (Abutilon theophrasti); conditions: amount of applied herbicide 320 g/ha; foliage application after 14-day growth; evaluated three weeks after application
How it was run: as §4

redroot pigweed [22] = experiment: Test Example 5: herbicidal effect by foliage application, plastic box (Table 20, symbol N); type: in vivo, redroot pigweed (Amaranthus retroflexus); conditions: amount of applied herbicide 320 g/ha; foliage application after 14-day growth; evaluated three weeks after application
How it was run: as §4

lambsquarters [23] = experiment: Test Example 5: herbicidal effect by foliage application, plastic box (Table 20, symbol O); type: in vivo, lambsquarters (Chenopodium album); conditions: amount of applied herbicide 320 g/ha; foliage application after 14-day growth; evaluated three weeks after application
How it was run: as §4

chickweed [24] = experiment: Test Example 5: herbicidal effect by foliage application, plastic box (Table 20, symbol P); type: in vivo, common chickweed (Stellaria media); conditions: amount of applied herbicide 320 g/ha; foliage application after 14-day growth; evaluated three weeks after application
How it was run: as §4

persian speedwell [25] = experiment: Test Example 5: herbicidal effect by foliage application, plastic box (Table 20, symbol R); type: in vivo, Persian speedwell (Veronica persica); conditions: amount of applied herbicide 320 g/ha; foliage application after 14-day growth; evaluated three weeks after application
How it was run: as §4

Q: `CCCC(=O)Oc1c(C)nn(C)c(=O)c1-c1c(-c2ccc(C(=O)OC)cc2)sc2cc(F)c(F)cc12` [5-028] was tested. Which “Herbicidal effect, A: late watergrass” value (late watergrass) did it give?
A: Its value is 0 (Herbicidal rate of 5% or less (almost no effect)).

Q: And the “Herbicidal effect, B: Japanese bulrush” value (Japanese bulrush)?
A: The value was 2 (Herbicidal rate of 20% or more and less than 40%).

Q: And the “Herbicidal effect, C: oval-leafed pondweed” value (oval-leafed pondweed)?
A: Its value is 2 (Herbicidal rate of 20% or more and less than 40%).

Q: And the “herbicidal effect on barnyard grass (H)” value (barnyard grass [1])?
A: The value was 5 (Herbicidal rate of 90% or more (almost completely withered)).

Q: What about the “herbicidal effect on Chinese sprangletop (D)” value (Chinese sprangletop) of the same molecule?
A: Its value is 0 (Herbicidal rate of 5% or less (almost no effect)).

Q: What about the “herbicidal effect on rice flat sedge (E)” value (rice flat sedge) of the same molecule?
A: The value was 0 (Herbicidal rate of 5% or less (almost no effect)).

Q: And the “F: southern crabgrass, herbicidal effect grade” value (southern crabgrass [2])?
A: Its value is 0 (Herbicidal rate of 5% or less (almost no effect)).

Q: And the “G: green foxtail, herbicidal effect grade” value (green foxtail [3])?
A: Its value is 0 (Herbicidal rate of 5% or less (almost no effect)).

Q: And the “H: barnyard grass, herbicidal effect grade” value (barnyard grass [4])?
A: The value was 0 (Herbicidal rate of 5% or less (almost no effect)).

Q: And the “I: wild oat, herbicidal effect grade” value (wild oat [5])?
A: The value was 0 (Herbicidal rate of 5% or less (almost no effect)).

Q: And the “J: blackgrass, herbicidal effect grade” value (blackgrass [6])?
A: The value was 0 (Herbicidal rate of 5% or less (almost no effect)).

Q: What about the “K: Italian ryegrass, herbicidal effect grade” value (Italian ryegrass [7]) of the same molecule?
A: Its value is 0 (Herbicidal rate of 5% or less (almost no effect)).

Q: And the “L: windgrass, herbicidal effect grade” value (windgrass [8])?
A: The value was 0 (Herbicidal rate of 5% or less (almost no effect)).

Q: What about the “M: velvetleaf, herbicidal effect grade” value (velvetleaf [9]) of the same molecule?
A: The value was 0 (Herbicidal rate of 5% or less (almost no effect)).

Q: And the “N: redroot pigweed, herbicidal effect grade” value (redroot pigweed [10])?
A: Its value is 3 (Herbicidal rate of 40% or more and less than 70%).

Q: What about the “O: lambsquarters, herbicidal effect grade” value (lambsquarters [11]) of the same molecule?
A: Its value is 2 (Herbicidal rate of 20% or more and less than 40%).

Q: What about the “P: chickweed, herbicidal effect grade” value (chickweed [12]) of the same molecule?
A: Its value is 1 (Herbicidal rate of 5% or more and less than 20%).

Q: And the “R: persian speedwell, herbicidal effect grade” value (persian speedwell [13])?
A: The value was 1 (Herbicidal rate of 5% or more and less than 20%).

Q: What about the “Herbicidal effect by foliage application, F: southern crabgrass” value (southern crabgrass [14]) of the same molecule?
A: The value was 0 (Herbicidal rate of 5% or less (almost no effect)).

Q: And the “Herbicidal effect by foliage application, G: green foxtail” value (green foxtail [15])?
A: The value was 0 (Herbicidal rate of 5% or less (almost no effect)).

Q: What about the “Herbicidal effect by foliage application, H: barnyard grass” value (barnyard grass [16]) of the same molecule?
A: The value was 0 (Herbicidal rate of 5% or less (almost no effect)).

Q: And the “Herbicidal effect by foliage application, I: wild oat” value (wild oat [17])?
A: The value was 0 (Herbicidal rate of 5% or less (almost no effect)).

Q: What about the “Herbicidal effect by foliage application, J: blackgrass” value (blackgrass [18]) of the same molecule?
A: The value was 0 (Herbicidal rate of 5% or less (almost no effect)).

Q: What about the “Herbicidal effect by foliage application, K: Italian ryegrass” value (Italian ryegrass [19]) of the same molecule?
A: Its value is 0 (Herbicidal rate of 5% or less (almost no effect)).

Q: What about the “Herbicidal effect by foliage application, L: windgrass” value (windgrass [20]) of the same molecule?
A: The value was 0 (Herbicidal rate of 5% or less (almost no effect)).

Q: What about the “Herbicidal effect by foliage application, M: velvetleaf” value (velvetleaf [21]) of the same molecule?
A: The value was 3 (Herbicidal rate of 40% or more and less than 70%).

Q: What about the “Herbicidal effect by foliage application, N: redroot pigweed” value (redroot pigweed [22]) of the same molecule?
A: The value was 3 (Herbicidal rate of 40% or more and less than 70%).

Q: And the “Herbicidal effect by foliage application, O: lambsquarters” value (lambsquarters [23])?
A: The value was 3 (Herbicidal rate of 40% or more and less than 70%).

Q: And the “Herbicidal effect by foliage application, P: chickweed” value (chickweed [24])?
A: The value was 5 (Herbicidal rate of 90% or more (almost completely withered)).

Q: What about the “Herbicidal effect by foliage application, R: persian speedwell” value (persian speedwell [25]) of the same molecule?
A: Its value is 4 (Herbicidal rate of 70% or more and less than 90%).
